Experimental data as given in US20100166659A1, “USE OF CYANINE DYES FOR THE DIAGNOSIS OF PROLIFERATIVE DISEASES” (priority 2005, published 2010).
Read-outs that look alike come from different tables or passages of the source.

How the values were obtained:
[1] = remark *see Ref. (Licha et al. 1996), cited from earlier work
tumors = details: cited from earlier work
[2] = Determination of fluorescence quantum yield of tricarbocyanine dyes; format: physicochemical; details: 2 μM
Method: Compounds 6-4, 5-36, 5-29, 5-41, NIR96009, NIR96005 and ICG (see Table 1) were tested for their fluorescence quantum yields at a concentration of 2 μM in either water or plasma. It is apparent from Table 2 that a substitution in the middle of the tricarbocyanine dye improves fluorescence quantum yield in both media.

| Fluorescence max. (nm) In plasma [2] [nm] | Fluorescence quantum yield (%) In plasma [2] [%] | Compound | Fluorescence max. (nm) In plasma [1] [nm] | Fluorescence quantum yield (%) In plasma [1] [%] | Fluorescence quantum yield (%) In water [1] [%] | Fluorescence quantum yield (%) In water [2] [%] | further results |
| --- | --- | --- | --- | --- | --- | --- | --- |
| – | – | CC1(C)C(/C=C/C=C/C=C/C=C2/N(CCCCS(=O)(=O)O)c3ccc4ccccc4c3C2(C)C)=[N+](CCCCS(=O)(=O)[O-])c2ccc3ccccc3c21 [ICG, indocyanine green] | 829 | 3 | 1 | – | Detection limit, tumor size (tumors; prior-art dye): 1 cm |
| – | – | CC1(C)C(/C=C/C=C/C=C/C=C2/N(CCCCS(=O)(=O)O)c3ccc(C(=O)NC(CC(=O)O)C(=O)O)cc3C2(C)C)=[N+](CCCCS(=O)(=O)[O-])c2ccc(C(=O)NC(CC(=O)O)C(=O)O)cc21 (stereo not drawn) [NIR96009] | 786 | 7.8 | 5.8 | – | – |
| – | – | indocyanine green [ICG] | – | – | – | – | Size of ductal breast carcinomas that could be detected (tumors; DOT, 0.25 mg/kg body weight): ≥ 1 cm |
| – | – | CC1(C)C(/C=C/C=C/C=C/C=C2/N(CCCCS(=O)(=O)O)c3ccc(C(=O)O)cc3C2(C)C)=[N+](CCCCS(=O)(=O)[O-])c2ccc(C(=O)O)cc21 [NIR96005] | 795 | 7.2 | 5.6 | – | – |
| 813 | 9.8 | CC1(C)C(/C=C/C=C(/C=C/C=C2/N(CCCCS(=O)(=O)O)c3ccc(S(=O)(=O)[O-])cc3C2(C)C)CCS(=O)(=O)O)=[N+](CCCCS(=O)(=O)O)c2ccc(S(=O)(=O)O)cc21 [Compound 5-29] | – | – | – | 8.2 | – |
| – | – | CC(/C=C/C=C1/N(CCS(=O)(=O)O)c2ccc(S(=O)(=O)[O-])cc2C1(C)C)=C\C=C\C1=[N+](CCS(=O)(=O)O)c2ccc(S(=O)(=O)O)cc2C1(C)C [Compound 5-36] | – | – | – | 12 | – |
| 799 | 19 | CC1(C)C(/C=C/C2=C(c3ccccc3)C(=C/C=C3/N(CCCCS(=O)(=O)O)c4ccc(S(=O)(=O)[O-])cc4C3(C)C)/CCC2)=[N+](CCCCS(=O)(=O)O)c2ccc(S(=O)(=O)O)cc21 [Compound 5-41] | – | – | – | 10 | – |

| Compound | Fluorescence max. (nm) In plasma [2] [nm] | Fluorescence quantum yield (%) In plasma [2] [%] | Fluorescence max. (nm) In plasma [1] [nm] | Fluorescence quantum yield (%) In plasma [1] [%] | Fluorescence quantum yield (%) In water [1] [%] | Fluorescence quantum yield (%) In water [2] [%] | further results |
| --- | --- | --- | --- | --- | --- | --- | --- |
| CC(/C=C/C=C1/N(CCS(=O)(=O)O)c2ccc(S(=O)(=O)[O-])cc2C1(C)C)=C\C=C\C1=[N+](CCS(=O)(=O)O)c2ccc(S(=O)(=O)O)cc2C1(C)C [SF64] | 787 | 17 | – | – | – | 11 | – |
